According to patent US11992012B2, “Diaminotriazine compounds” (BASF SE, priority 2018, dated 2024):

Assays:
Assay in all cases: greenhouse pre-emergence herbicidal test
Type in all cases: in vivo
Details in all cases: 250 g/ha, scale 0 to 100
Amaranthus retroflexus = tested on: Amaranthus retroflexus
Excerpt: (§1) The culture containers used were plastic flowerpots containing loamy sand with approximately 3.0% of humus as the substrate. The seeds of the test plants were sown separately for each species.
(§2) For the pre-emergence treatment, the active ingredients, which had been suspended or emulsified in water, were applied directly after sowing by means of finely distributing nozzles. The containers were irrigated gently to promote germination and growth and subsequently covered with transparent plastic hoods until the plants had rooted. This cover caused uniform germination of the test plants, unless this had been impaired by the active ingredients.
(§3) Depending on the species, the plants were kept at 10-25° C. or 20-35° C., respectively.
(§4) The test period extended over 2 to 4 weeks. During this time, the plants were tended, and their response to the individual treatments was evaluated.
(§5) Evaluation was carried out using a scale from 0 to 100. 100 means no emergence of the plants, or complete destruction of at least the aerial moieties, and 0 means no damage, or normal course of growth. A moderate herbicidal activity is given at values of at least 60, a good herbicidal activity is given at values of at least 70, and a very good herbicidal activity is given at values of at least 85.

Echinocloa crus-galli = tested on: Echinocloa crus-galli
Excerpt: as §1, §2, §3, §4, §5

Abutilon theophrasti = tested on: Abutilon theophrasti
Excerpt: (§6) The culture containers used were plastic flowerpots containing loamy sand with approximately 3.0% of humus as the substrate. The seeds of the test plants were sown separately for each species. For the pre-emergence treatment, the active ingredients, which had been suspended or emulsified in water, were applied directly after sowing by means of finely distributing nozzles. The containers were irrigated gently to promote germination and growth and subsequently covered with transparent plastic hoods until the plants had rooted. This cover caused uniform germination of the test plants, unless this had been impaired by the active ingredients. […] The test period extended over 2 to 4 weeks. During this time, the plants were tended, and their response to the individual treatments was evaluated. Evaluation was carried out using a scale from 0 to 100. 100 means no emergence of the plants, or complete destruction of at least the aerial moieties, and 0 means no damage, or normal course of growth.

Setaria faberi = tested on: Setaria faberi
Excerpt: as §6

Alopercurus myosuroides = tested on: Alopercurus myosuroides
Excerpt: as §1, §2, §3, §4, §5

## CC(C)(F)c1nc(N)nc(Nc2c(F)cccc2OCc2ccsc2)n1 [Example 22]
Amaranthus retroflexus
  herbicidal activity: 100%
Echinocloa crus-galli
  herbicidal activity: 100%
Abutilon theophrasti
  herbicidal activity: 100%
Setaria faberi
  herbicidal activity: 100%

## Cc1cccc(COc2cccc(F)c2Nc2nc(N)nc(C(C)(C)F)n2)c1 [Example 26]
Echinocloa crus-galli
  herbicidal activity: 80%
Abutilon theophrasti
  herbicidal activity: 85%
Setaria faberi
  herbicidal activity: 70%

## CC(C)(F)c1nc(N)nc(Nc2c(F)cccc2OCc2ccccc2F)n1 [Example 27]
Echinocloa crus-galli
  herbicidal activity: 100%
Abutilon theophrasti
  herbicidal activity: 100%
Setaria faberi
  herbicidal activity: 100%

## Cc1ccccc1COc1cccc(F)c1Nc1nc(N)nc(C(C)(C)F)n1 [Example 30]
Amaranthus retroflexus
  herbicidal activity: 100%
Echinocloa crus-galli
  herbicidal activity: 100%
Abutilon theophrasti
  herbicidal activity: 100%
Setaria faberi
  herbicidal activity: 100%

## Nc1nc(Nc2c(F)cccc2OCc2ccccc2)nc(C2(F)CCCCC2)n1 [Example 31]
Amaranthus retroflexus
  herbicidal activity: 75%
Echinocloa crus-galli
  herbicidal activity: 100%
Abutilon theophrasti
  herbicidal activity: 85%

## CCC(F)c1nc(N)nc(Nc2c(F)cccc2OCc2ccccc2)n1 (stereo not drawn) [Example 35]
Amaranthus retroflexus
  herbicidal activity: 100%
Echinocloa crus-galli
  herbicidal activity: 100%
Abutilon theophrasti
  herbicidal activity: 100%
Setaria faberi
  herbicidal activity: 100%

## CC(C)(F)c1nc(N)nc(Nc2c(F)cccc2OCc2nc(C3CC3)no2)n1 [Example 42]
Amaranthus retroflexus
  herbicidal activity: 100%
Abutilon theophrasti
  herbicidal activity: 80%

## CC(C)(F)c1nc(N)nc(Nc2c(F)cccc2OCc2cc(F)cc(F)c2)n1 [Example 43]
Amaranthus retroflexus
  herbicidal activity: 100%
Echinocloa crus-galli
  herbicidal activity: 100%
Abutilon theophrasti
  herbicidal activity: 100%

## CC(C)(F)c1nc(N)nc(Nc2c(F)cccc2OCc2cccc(Br)c2)n1 [Example 44]
Abutilon theophrasti
  herbicidal activity: 70%
Setaria faberi
  herbicidal activity: 70%

## CC(C)(F)c1nc(N)nc(Nc2c(F)cccc2OCc2cccc(Cl)c2)n1 [Example 47]
Amaranthus retroflexus
  herbicidal activity: 100%
Echinocloa crus-galli
  herbicidal activity: 80%
Abutilon theophrasti
  herbicidal activity: 100%

## CC(C)(F)c1nc(N)nc(Nc2c(F)cccc2OCc2ncco2)n1 [Example 70]
Amaranthus retroflexus
  herbicidal activity: 100%
Echinocloa crus-galli
  herbicidal activity: 100%
Abutilon theophrasti
  herbicidal activity: 100%

## CCCC(F)c1nc(N)nc(Nc2c(F)cccc2OCc2ccccc2)n1 (stereo not drawn) [Example 77]
Echinocloa crus-galli
  herbicidal activity: 100%
Abutilon theophrasti
  herbicidal activity: 80%
Setaria faberi
  herbicidal activity: 100%

## COc1ccccc1COc1cccc(F)c1Nc1nc(N)nc(C(C)(C)F)n1 [Example 100]
Amaranthus retroflexus
  herbicidal activity: 100%
Echinocloa crus-galli
  herbicidal activity: 100%
Abutilon theophrasti
  herbicidal activity: 80%

## Cc1c(F)cccc1COc1cccc(F)c1Nc1nc(N)nc(C(C)(C)F)n1 [Example 102]
Echinocloa crus-galli
  herbicidal activity: 100%
Abutilon theophrasti
  herbicidal activity: 85%
Setaria faberi
  herbicidal activity: 100%

## CC(C)(F)c1nc(N)nc(Nc2c(OCc3ccccc3)ccc(F)c2F)n1 [Example 108]
Amaranthus retroflexus
  herbicidal activity: 100%
Alopercurus myosuroides
  herbicidal activity: 100%
Echinocloa crus-galli
  herbicidal activity: 100%
Setaria faberi
  herbicidal activity: 100%

## CC(C)(F)c1nc(N)nc(Nc2c(C#N)cccc2OCc2ccccc2)n1 [Example 128]
Amaranthus retroflexus
  herbicidal activity: 100%
Abutilon theophrasti
  herbicidal activity: 90%
Setaria faberi
  herbicidal activity: 90%

## CC(C)(F)c1nc(N)nc(Nc2c(F)cccc2OC(F)(F)c2cccc(F)c2)n1 [Example 130]
Echinocloa crus-galli
  herbicidal activity: 100%
Abutilon theophrasti
  herbicidal activity: 100%
Setaria faberi
  herbicidal activity: 100%

## COC(C)(C)c1nc(N)nc(Nc2c(F)cccc2OC(F)(F)c2cccc(F)c2)n1 [Example 131]
Amaranthus retroflexus
  herbicidal activity: 85%
Abutilon theophrasti
  herbicidal activity: 90%
Setaria faberi
  herbicidal activity: 90%

## COc1cccc(COc2c(F)ccc(F)c2Nc2nc(N)nc(C(C)(C)F)n2)c1 [Example 139]
Amaranthus retroflexus
  herbicidal activity: 100%
Echinocloa crus-galli
  herbicidal activity: 100%
Abutilon theophrasti
  herbicidal activity: 100%
Setaria faberi
  herbicidal activity: 100%

## Cc1ccc(COc2c(F)ccc(F)c2Nc2nc(N)nc(C(C)(C)F)n2)cc1 [Example 141]
Echinocloa crus-galli
  herbicidal activity: 100%
Abutilon theophrasti
  herbicidal activity: 98%
Setaria faberi
  herbicidal activity: 100%

## CC(C)(F)c1nc(N)nc(Nc2c(F)ccc(F)c2OCc2ccccc2F)n1 [Example 172]
Echinocloa crus-galli
  herbicidal activity: 100%
Abutilon theophrasti
  herbicidal activity: 100%
Setaria faberi
  herbicidal activity: 100%

## COc1ccccc1COc1c(F)ccc(F)c1Nc1nc(N)nc(C(C)(C)F)n1 [Example 173]
Amaranthus retroflexus
  herbicidal activity: 100%
Echinocloa crus-galli
  herbicidal activity: 100%
Abutilon theophrasti
  herbicidal activity: 100%

## Cc1ccc(F)c(Nc2nc(N)nc(C(C)(C)F)n2)c1OCc1ccccc1 [Example 175]
Echinocloa crus-galli
  herbicidal activity: 100%
Abutilon theophrasti
  herbicidal activity: 85%
Setaria faberi
  herbicidal activity: 95%

## Cc1ccc(COc2c(F)cc(F)c(F)c2Nc2nc(N)nc(C(C)(C)F)n2)cc1 [Example 183]
Echinocloa crus-galli
  herbicidal activity: 100%
Abutilon theophrasti
  herbicidal activity: 100%
Setaria faberi
  herbicidal activity: 100%

## COc1ccccc1COc1ccc(F)c(F)c1Nc1nc(N)nc(C(C)(C)F)n1 [Example 198]
Echinocloa crus-galli
  herbicidal activity: 100%
Abutilon theophrasti
  herbicidal activity: 98%
Setaria faberi
  herbicidal activity: 100%

## CC(C)(C)c1nc(N)nc(Nc2c(F)c(F)cc(F)c2OCc2ccccc2)n1 [Example 200]
Echinocloa crus-galli
  herbicidal activity: 100%
Abutilon theophrasti
  herbicidal activity: 100%
Setaria faberi
  herbicidal activity: 100%

## Nc1nc(Nc2c(F)cccc2OCc2ccccc2)nc(C(F)C2CCCC2)n1 (stereo not drawn) [Example 202]
Echinocloa crus-galli
  herbicidal activity: 80%
Abutilon theophrasti
  herbicidal activity: 80%
Setaria faberi
  herbicidal activity: 85%

## CC(C)(F)c1nc(N)nc(Nc2c(F)c(F)cc(F)c2OCc2ccc(Cl)cc2)n1 [Example 207]
Echinocloa crus-galli
  herbicidal activity: 100%
Abutilon theophrasti
  herbicidal activity: 90%
Setaria faberi
  herbicidal activity: 100%

## CC(C)c1ccccc1COc1c(F)cc(F)c(F)c1Nc1nc(N)nc(C(C)(C)F)n1 [Example 208]
Amaranthus retroflexus
  herbicidal activity: 80%
Abutilon theophrasti
  herbicidal activity: 90%

## CC(C)(F)c1nc(N)nc(Nc2c(F)c(F)cc(F)c2OCc2cccc(Cl)c2)n1 [Example 217]
Echinocloa crus-galli
  herbicidal activity: 100%
Abutilon theophrasti
  herbicidal activity: 98%
Setaria faberi
  herbicidal activity: 100%

## COCc1cccc(COc2c(F)cc(F)c(F)c2Nc2nc(N)nc(C(C)(C)F)n2)c1 [Example 219]
Echinocloa crus-galli
  herbicidal activity: 85%
Abutilon theophrasti
  herbicidal activity: 100%
Setaria faberi
  herbicidal activity: 100%

## CC(C)(F)c1nc(N)nc(Nc2c(F)c(F)cc(Br)c2OCc2ccccc2)n1 [Example 222]
Echinocloa crus-galli
  herbicidal activity: 100%
Abutilon theophrasti
  herbicidal activity: 98%
Setaria faberi
  herbicidal activity: 100%

## CC(C)(F)c1nc(N)nc(Nc2c(F)ccc(Br)c2OCc2ccccc2)n1 [Example 223]
Echinocloa crus-galli
  herbicidal activity: 95%
Abutilon theophrasti
  herbicidal activity: 100%
Setaria faberi
  herbicidal activity: 100%

## COCc1ccccc1COc1c(F)cc(F)c(F)c1Nc1nc(N)nc(C(C)(C)F)n1 [Example 224]
Echinocloa crus-galli
  herbicidal activity: 90%
Abutilon theophrasti
  herbicidal activity: 100%
Setaria faberi
  herbicidal activity: 100%

## CC(C)(F)c1nc(N)nc(Nc2c(F)c(F)cc(F)c2OCc2ccccc2Br)n1 [Example 232]
Echinocloa crus-galli
  herbicidal activity: 100%
Abutilon theophrasti
  herbicidal activity: 100%
Setaria faberi
  herbicidal activity: 100%

## COC(C)c1nc(N)nc(Nc2c(F)c(F)cc(F)c2OCc2ccccc2Cl)n1 (stereo not drawn) [Example 243]
Echinocloa crus-galli
  herbicidal activity: 85%
Abutilon theophrasti
  herbicidal activity: 85%
Setaria faberi
  herbicidal activity: 85%

## COC(C)c1nc(N)nc(Nc2c(F)c(F)cc(F)c2OCc2cccc(Cl)c2)n1 (stereo not drawn) [Example 244]
Amaranthus retroflexus
  herbicidal activity: 75%
Abutilon theophrasti
  herbicidal activity: 85%
Setaria faberi
  herbicidal activity: 75%

## CC(C)(Cl)c1nc(N)nc(Nc2c(F)c(F)cc(F)c2OCc2ccccc2)n1 [Example 246]
Amaranthus retroflexus
  herbicidal activity: 100%
Echinocloa crus-galli
  herbicidal activity: 100%
Abutilon theophrasti
  herbicidal activity: 100%

## COC(C)(C)c1nc(N)nc(Nc2c(F)c(F)cc(F)c2OCc2ccccc2F)n1 [Example 248]
Amaranthus retroflexus
  herbicidal activity: 100%
Echinocloa crus-galli
  herbicidal activity: 100%
Abutilon theophrasti
  herbicidal activity: 100%

## COC(C)(C)c1nc(N)nc(Nc2c(F)c(F)cc(F)c2OCc2cccc(F)c2)n1 [Example 249]
Echinocloa crus-galli
  herbicidal activity: 100%
Abutilon theophrasti
  herbicidal activity: 100%
Setaria faberi
  herbicidal activity: 100%

## COC(C)(C)c1nc(N)nc(Nc2c(F)c(F)cc(F)c2OCc2ccc(F)cc2)n1 [Example 250]
Amaranthus retroflexus
  herbicidal activity: 100%
Echinocloa crus-galli
  herbicidal activity: 100%
Abutilon theophrasti
  herbicidal activity: 100%

## COC(C)(C)c1nc(N)nc(Nc2c(F)c(F)cc(F)c2OCc2ccccc2Cl)n1 [Example 251]
Echinocloa crus-galli
  herbicidal activity: 95%
Abutilon theophrasti
  herbicidal activity: 98%
Setaria faberi
  herbicidal activity: 100%

## COC(C)(C)c1nc(N)nc(Nc2c(F)c(F)cc(F)c2OCc2cccc(Cl)c2)n1 [Example 252]
Amaranthus retroflexus
  herbicidal activity: 95%
Abutilon theophrasti
  herbicidal activity: 100%
Setaria faberi
  herbicidal activity: 100%

## CC(C)c1nc(N)nc(Nc2c(F)c(F)cc(F)c2OCc2ccccc2)n1 [Example 254]
Echinocloa crus-galli
  herbicidal activity: 100%
Abutilon theophrasti
  herbicidal activity: 100%
Setaria faberi
  herbicidal activity: 100%

## CC(C)(F)c1nc(N)nc(Nc2c(F)cccc2OCc2ccccc2)n1 [Example 257]
Abutilon theophrasti
  herbicidal activity: 100%
